Reference: ChEMBL document CHEMBL1649217, “Emergence of Klebsiella pneumoniae ST258 with KPC-2 in Poland” (2009)
Values after ≈ are worked out from the molar mass of the structure shown.

Legend:
Assay type in all cases: functional
Escherichia coli [1] = test: Antimicrobial activity against rifampicin-resistant Escherichia coli A15 transconjugant expressing beta-lactamase KPC-2/TEM-1 by Etest
Klebsiella pneumoniae [2] = test: Antimicrobial activity against Klebsiella pneumoniae isolate 2337/08 obtained from patient with ischemic cardiomyopathy and several comorbidities
Escherichia coli [3] = test: Antimicrobial activity against rifampicin-resistant Escherichia coli A15 transconjugant expressing beta-lactamase SHV-12 by Etest
Klebsiella pneumoniae [4] = test: Antimicrobial activity against Klebsiella pneumoniae isolate 2641/08 obtained from urine of patient with ischemic cardiomyopathy and several comorbidities by Etest
Escherichia coli [5] = test: Antimicrobial activity against rifampicin-resistant Escherichia coli A15 by Etest
Escherichia coli [6] = test: Antimicrobial activity against rifampicin-resistant Escherichia coli A15 transconjugant expressing beta-lactamase KPC-2/TEM-1 by Etest in presence of beta-lactamase inhibitor Tazobactam
Escherichia coli [7] = test: Antimicrobial activity against rifampicin-resistant Escherichia coli A15 transconjugant expressing beta-lactamase SHV-12 by Etest in presence of beta-lactamase inhibitor Tazobactam
Escherichia coli [8] = test: Antimicrobial activity against rifampicin-resistant Escherichia coli A15 by Etest in presence of beta-lactamase inhibitor Tazobactam
Klebsiella pneumoniae [9] = test: Antimicrobial activity against Klebsiella pneumoniae isolate 2641/08 obtained from urine of patient with ischemic cardiomyopathy and several comorbidities by Etest in presence of beta-lactamase inhibitor Tazobactam; details: isolate 2641/08, Urine
Escherichia coli [10] = test: Antimicrobial activity against rifampicin-resistant Escherichia coli A15 by Etest in presence of beta-lactamase inhibitor clavulanic acid
Escherichia coli [11] = test: Antimicrobial activity against rifampicin-resistant Escherichia coli A15 transconjugant expressing beta-lactamase KPC-2/TEM-1 by Etest in presence of beta-lactamase inhibitor clavulanic acid
Escherichia coli [12] = test: Antimicrobial activity against rifampicin-resistant Escherichia coli A15 transconjugant expressing beta-lactamase SHV-12 by Etest in presence of beta-lactamase inhibitor clavulanic acid
Klebsiella pneumoniae [13] = test: Antimicrobial activity against Klebsiella pneumoniae isolate 2641/08 obtained from urine of patient with ischemic cardiomyopathy and several comorbidities by Etest in presence of beta-lactamase inhibitor clavulanic acid; details: isolate 2641/08, Urine

Compound	MIC (Escherichia coli [1]) [µg/mL]	MIC (Escherichia coli [3]) [µg/mL]	MIC (Klebsiella pneumoniae [4]; isolate 2641/08, Urine) [µg/mL]	MIC (Escherichia coli [5]) [µg/mL]	also measured
C[C@@H](O)[C@H]1C(=O)N2C(C(=O)O)=C(SCCNC=N)C[C@H]12 [IMIPENEM ANHYDROUS]	3 (≈ 10 µM)	0.25 (≈ 0.835 µM)	2 (≈ 6.68 µM)	0.25 (≈ 0.835 µM)	MIC (Klebsiella pneumoniae [2]): 2 µg/mL (≈ 6.68 µM)
CCN1CCN(C(=O)N[C@@H](C(=O)N[C@@H]2C(=O)N3[C@@H]2SC(C)(C)[C@@H]3C(=O)O)c2ccccc2)C(=O)C1=O [PIPERACILLIN]	96 (≈ 185 µM)	32 (≈ 61.8 µM)	> 256	1.5 (≈ 2.9 µM)	MIC (Escherichia coli [6]): 48 µg/mL; MIC (Escherichia coli [7]): 1 µg/mL; MIC (Escherichia coli [8]): 1 µg/mL; MIC (Klebsiella pneumoniae [9]): > 256 µg/mL
GENTAMICIN	0.25	0.19		0.19	MIC (Klebsiella pneumoniae [4]): 1 µg/mL
CN(C)c1cc(NC(=O)CNC(C)(C)C)c(O)c2c1C[C@H]1C[C@H]3[C@H](N(C)C)C(O)=C(C(N)=O)C(=O)[C@@]3(O)C(O)=C1C2=O [TIGECYCLINE]	0.38 (≈ 0.649 µM)	0.38 (≈ 0.649 µM)	3 (≈ 5.12 µM)	0.38 (≈ 0.649 µM)	
COLISTIN	0.25	0.19		0.25	MIC (Klebsiella pneumoniae [4]): 0.38 µg/mL
NCC[C@H](O)C(=O)N[C@@H]1C[C@H](N)[C@@H](O[C@H]2O[C@H](CN)[C@@H](O)[C@H](O)[C@H]2O)[C@H](O)[C@H]1O[C@H]1O[C@H](CO)[C@@H](O)[C@H](N)[C@H]1O [AMIKACIN]	1.5 (≈ 2.56 µM)	1 (≈ 1.71 µM)	12 (≈ 20.5 µM)	1 (≈ 1.71 µM)	
CC(C)(O/N=C(\C(=O)N[C@@H]1C(=O)N2C(C(=O)[O-])=C(C[n+]3ccccc3)CS[C@H]12)c1csc(N)n1)C(=O)O [CEFTAZIDIME]	3 (≈ 5.49 µM)	16 (≈ 29.3 µM)	> 256	0.25 (≈ 0.457 µM)	
CN(C)[C@@H]1C(O)=C(C(N)=O)C(=O)[C@@]2(O)C(O)=C3C(=O)c4c(O)cccc4[C@@](C)(O)[C@H]3C[C@@H]12 [TETRACYCLINE]	2 (≈ 4.5 µM)	1.5 (≈ 3.38 µM)	32 (≈ 72 µM)	2 (≈ 4.5 µM)	
CO/N=C(\C(=O)N[C@@H]1C(=O)N2C(C(=O)O)=C(COC(C)=O)CS[C@H]12)c1csc(N)n1 [CEFOTAXIME]	2 (≈ 4.39 µM)	1.5 (≈ 3.29 µM)	128 (≈ 281 µM)	0.047 (≈ 0.103 µM)	
CC1(C)S[C@@H]2[C@H](NC(=O)[C@H](N)c3ccc(O)cc3)C(=O)N2[C@H]1C(=O)O [AMOXICILLIN]					MIC (Escherichia coli [10]): 4 µg/mL; MIC (Escherichia coli [11]): 24 µg/mL; MIC (Escherichia coli [12]): 4 µg/mL; MIC (Klebsiella pneumoniae [13]): > 256 µg/mL
C[C@@H](O)[C@H]1C(=O)N2C(C(=O)O)=C(S[C@@H]3CN[C@H](C(=O)N(C)C)C3)[C@H](C)[C@H]12 [MEROPENEM]	0.75 (≈ 1.96 µM)	0.047 (≈ 0.123 µM)	3 (≈ 7.82 µM)	0.032 (≈ 0.0834 µM)	
O=C(O)c1cn(C2CC2)c2cc(N3CCNCC3)c(F)cc2c1=O [CIPROFLOXACIN]			> 32		
CO/N=C(\C(=O)N[C@@H]1C(=O)N2C(C(=O)[O-])=C(C[N+]3(C)CCCC3)CS[C@H]12)c1csc(N)n1	1.5 (≈ 3.12 µM)	0.5 (≈ 1.04 µM)	> 32	0.047 (≈ 0.0978 µM)	
CC1(C)S[C@@H]2[C@H](NC(=O)[C@H](N)c3ccccc3)C(=O)N2[C@H]1C(=O)O [AMPICILLIN]	> 256	> 256	> 256	3 (≈ 8.59 µM)	
